Columns and labels:
Striatal dopamine = assay: Prevention of MPTP neurotoxicity (striatal dopamine); assay type: in vivo; conditions: mice
From the text: MPTP given parenterally to mice depletes striatal dopamine. This effect can be prevented by MAO-B, but not by MAO-A inhibitor.

[1] = target: T1, rat brain mitochondrial MAO-A (Rattus norvegicus, UniProt P21396); assay: In vitro inhibition of rat brain mitochondrial MAO-A; assay type: biochemical
T1 construct: from tissue; host or cells: rat brain mitochondria
T1 sequence (P21396 1-526): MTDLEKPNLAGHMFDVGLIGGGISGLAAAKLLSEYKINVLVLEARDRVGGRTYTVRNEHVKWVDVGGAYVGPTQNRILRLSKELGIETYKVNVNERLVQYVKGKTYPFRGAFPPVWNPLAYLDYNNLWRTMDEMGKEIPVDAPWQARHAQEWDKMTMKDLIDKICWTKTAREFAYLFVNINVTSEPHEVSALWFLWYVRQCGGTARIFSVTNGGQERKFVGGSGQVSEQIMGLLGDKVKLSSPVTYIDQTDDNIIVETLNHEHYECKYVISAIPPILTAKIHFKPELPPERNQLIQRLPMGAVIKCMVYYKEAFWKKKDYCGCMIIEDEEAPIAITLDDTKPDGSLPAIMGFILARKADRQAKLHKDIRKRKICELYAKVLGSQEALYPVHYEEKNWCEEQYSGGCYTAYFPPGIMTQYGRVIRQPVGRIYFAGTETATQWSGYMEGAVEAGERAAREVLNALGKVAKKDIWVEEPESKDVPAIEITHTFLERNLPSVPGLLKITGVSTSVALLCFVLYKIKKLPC
From the text: In vivo, the compound is active orally, is potent and with a selectivity ratio of 44 remains selective for MAO-B.

[2] = target: T2, rat brain mitochondrial MAO-B (Rattus norvegicus, UniProt P19643); assay: In vitro inhibition of rat brain mitochondrial MAO-B; assay type: biochemical; conditions: MAO-A vs MAO-B IC50
T2 sequence (P19643 1-520): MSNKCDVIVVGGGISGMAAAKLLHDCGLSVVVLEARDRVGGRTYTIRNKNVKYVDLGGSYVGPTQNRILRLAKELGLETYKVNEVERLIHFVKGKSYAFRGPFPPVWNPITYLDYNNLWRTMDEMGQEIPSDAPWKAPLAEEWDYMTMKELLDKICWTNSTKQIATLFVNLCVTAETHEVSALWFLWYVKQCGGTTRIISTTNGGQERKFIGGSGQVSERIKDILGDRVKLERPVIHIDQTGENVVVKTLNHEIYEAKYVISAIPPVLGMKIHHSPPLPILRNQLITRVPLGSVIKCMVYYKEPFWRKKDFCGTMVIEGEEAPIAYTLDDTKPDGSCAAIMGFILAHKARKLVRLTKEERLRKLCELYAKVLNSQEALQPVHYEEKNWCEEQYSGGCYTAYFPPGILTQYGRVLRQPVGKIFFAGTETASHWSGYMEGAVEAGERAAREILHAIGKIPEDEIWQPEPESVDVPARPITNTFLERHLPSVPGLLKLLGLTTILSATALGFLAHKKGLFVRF

MAO-A = assay: Chronic (14 day) oral administration, rat tissue MAO-A activity; assay type: in vivo
From the text: Following repeated daily administration for 14 days, (E)-2-p-fluorophenethyl)-3-fluoroallylamine remained selective for the MAO-B enzyme. From the irreversible inhibition, mode of action and the long half-life of the enzyme, a lower daily dose is needed to inhibit the enzyme.

MAO-B = assay: Chronic (14 day) oral administration, rat tissue MAO-B activity; assay type: in vivo
[3] = system: tachycardia response to tyramine; assay: Potentiation of the cardiovascular effects of tyramine (tachycardia response); assay type: in vivo; conditions: for Tyramine potentiation ratio i.d.: intraduodenal tyramine 0.3-50 mg/kg; for Tyramine potentiation ratio i.v.: intravenous tyramine 1.25-80 µg/kg
From the text: Non-selective and MAO-A selective inhibitors are known to produce dangerous cardiovascular interactions with tyramine containing foods; the so-called "cheese reaction". L-Deprenyl is devoid of this effect.

| SMILES | Striatal dopamine (Striatal dopamine; MPTP alone, 20 mg/kg i.p.) | IC50 [1] [nM] | selectivity ratio in favor of MAO-B inhibition [2] | ED50 MAO-A (MAO-A; Brain) [mg/kg p.o.] | ED50 MAO-A (MAO-A; Duodenum) | ED50 MAO-A (MAO-A; Heart) [mg/kg p.o.] | ED50 MAO-A (MAO-A; Liver) [mg/kg p.o.] | ED50 MAO-B (MAO-B; Brain) [mg/kg p.o.] | ED50 MAO-B (MAO-B; Duodenum) [mg/kg p.o.] | ED50 MAO-B (MAO-B; Heart) [mg/kg p.o.] | ED50 MAO-B (MAO-B; Liver) [mg/kg p.o.] | Striatal dopamine (Striatal dopamine; MPTP plus compound) | Striatal dopamine (Striatal dopamine; compound alone, 1.25 mg/kg i.p.) | Tyramine potentiation ratio i.d. ([3]; 1.8 mg/kg p.o.) | Tyramine potentiation ratio i.v. ([3]; 1.8 mg/kg p.o.) | Tyramine potentiation ratio i.d. ([3]; 9 mg/kg p.o.) | Tyramine potentiation ratio i.v. ([3]; 9 mg/kg p.o.) | interactions with tyramine ([3]; given acutely at 10 and 50 times the ED50 dose for inhibition of MAO-B) |
| --- | --- | --- | --- | --- | --- | --- | --- | --- | --- | --- | --- | --- | --- | --- | --- | --- | --- | --- |
| CN1CC=C(c2ccccc2)CC1 [MPTP, N-methyl-4-phenyl-1,2,3,6-tetrahydropyridine, reference compound] | 4.3 ± 0.4 ug/g ± SEM | – | – | – | – | – | – | – | – | – | – | – | – | – | – | – | – | – |
| NC/C(=C/F)CCc1ccc(F)cc1 [(E)-2-(p-fluorophenethyl)-3-fluoroallylamine] | – | 680 | 190 | > 5 | >>5 mg/kg p.o. | 5 | > 5 | 0.025 | 0.25 | 0.5 | 0.01 | 16.0 ± 0.4 ug/g ± SEM | 16.6 ± 0.9 ug/g ± SEM | 1.4 | 0.8 | 1.3 | 1.8 | devoid of interactions with tyramine |
